Laboratory results as given in patent EP4596536A1 (Shanghai de Novo Pharmatech Co., Ltd., priority 2022, dated 2024).

Target: T1, TLR8 (Homo sapiens, UniProt Q9NR97)
T1 construct: host or cells: HEK293 (HEK-BLUE-hTLR8)
T1 sequence (Q9NR97 27-1041): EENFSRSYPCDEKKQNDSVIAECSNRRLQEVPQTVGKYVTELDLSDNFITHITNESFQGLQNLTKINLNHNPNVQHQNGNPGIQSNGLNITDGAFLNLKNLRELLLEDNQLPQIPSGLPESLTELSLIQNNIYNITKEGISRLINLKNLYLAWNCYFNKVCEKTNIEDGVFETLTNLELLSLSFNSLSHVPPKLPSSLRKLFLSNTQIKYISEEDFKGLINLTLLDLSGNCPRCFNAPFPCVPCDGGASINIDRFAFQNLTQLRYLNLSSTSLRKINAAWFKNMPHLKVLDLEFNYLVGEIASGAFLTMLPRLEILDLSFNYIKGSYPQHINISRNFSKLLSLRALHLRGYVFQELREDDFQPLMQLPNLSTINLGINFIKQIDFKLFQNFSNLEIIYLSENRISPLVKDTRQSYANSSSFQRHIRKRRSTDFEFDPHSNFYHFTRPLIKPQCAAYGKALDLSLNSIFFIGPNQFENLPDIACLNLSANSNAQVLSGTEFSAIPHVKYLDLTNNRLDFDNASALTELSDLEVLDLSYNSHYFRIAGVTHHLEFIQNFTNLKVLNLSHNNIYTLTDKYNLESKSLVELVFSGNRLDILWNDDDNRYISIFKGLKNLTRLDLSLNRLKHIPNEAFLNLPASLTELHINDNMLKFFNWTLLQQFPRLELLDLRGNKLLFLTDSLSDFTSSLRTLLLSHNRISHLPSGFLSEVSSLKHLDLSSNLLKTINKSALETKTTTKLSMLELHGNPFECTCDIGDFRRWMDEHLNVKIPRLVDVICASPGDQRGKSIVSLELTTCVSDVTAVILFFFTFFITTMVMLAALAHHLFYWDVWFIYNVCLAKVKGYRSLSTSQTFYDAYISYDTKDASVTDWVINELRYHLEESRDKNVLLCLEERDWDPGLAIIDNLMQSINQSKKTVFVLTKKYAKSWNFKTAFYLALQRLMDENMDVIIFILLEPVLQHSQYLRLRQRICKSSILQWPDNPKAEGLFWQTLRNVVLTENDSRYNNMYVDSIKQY
Assay: HEK-BLUE-hTLR8 cell SEAP reporter assay (Quanti-Blue)
Format: cell-based
Details: HEK-BLUE-hTLR8 cells, 0.5 nM to 15 µM, 24 hours
Method: In this experiment, the biological activity of TLR7 and TLR8 in the compound of formula I was detected using cell tests. This method was conducted in human embryonic kidney cells (HEK293) expressing TLR family members such as TLR4, TLR7, TLR8 or TLR9. TLR agonists activate TLRs, triggering the activation of downstream NF-kB, which in turn activates the secreted embryonic alkaline phosphatase (SEAP) reporter gene. The activity of SEAP was detected using the Quanti-Blue (InvivoGen) reagent, thereby reflecting the activities of TLR7 and TLR8 agonists.
The detailed experimental method was as follows: HEK-BLUE-hTLR7 and HEK-BLUE-hTLR8 cell lines were purchased from Invivogen Company and cultured in DMEM medium containing 4.5 g/L glucose (Sigma-Aldrich) and 10% fetal bovine serum under the conditions of temperature 37°C, humidity 95% and 5% CO2.
The compound was tested at a concentration ranging from 0.5 nM to 15 µM over a total of 10 concentration gradients. TLR7 or TLR8 agonists with known activity were added as positive controls, and 1 µL of DMSO was added as a negative control.
The cells were treated as follows: the cells were removed from the culture dish and centrifuged to remove the medium, and resuspended in a T-150 bottle with 10 mL of preheated PBS, 12 mL of preheated medium was added, and the cells were gently pipetted up and down and counted under a microscope. A 200,000/mL single-cell suspension was immediately prepared with medium and added to a 96-well plate at 200 µL/well (40,000/well). The final concentration of DMSO was 0.5%.
The compound was added and incubated in an incubator at 37°C, 5% CO2 for 24 hours.
A supernatant at 20 µL/well was aspirated into 180 µL of preheated Quanti-Blue at 37°C, incubated at 37°C for 1.5 hours, and detected for the absorbance (OD value) with a spectrophotometer at 650 nm. The formula for calculating the agonistic effect is as follows:
Effect % = (average OD value of the drug-administered group - average OD value of the DMSO group) / (average OD value of the positive drug group - average OD value of the DMSO group) × 100
Graphpad software was used to fit the concentration-effect curve, and EC50 was calculated. The test results are shown in Table 15 (A denotes < 250 nM, B denotes 250 nM-1 µM, C denotes 1 µM-2 µM, D denotes > 2 µM, and - denotes not listed or not tested): Table 15

SMILES | EC50
CCCN(CCO)C(=O)C1=Cc2ccc(C3(C(=O)Nc4cnc5c(c4)CN(C(=O)CNC(=O)[C@H](Cc4ccccc4)NC(=O)CNC(=O)CNC(=O)CCCCCN4C(=O)C=CC4=O)CC5)CC3)cc2N=C(N)C1 | 250 to 1000 nM
CCCN(CCOP(=O)(N[C@@H](C)C(=O)OCc1ccccc1)Oc1ccccc1)C(=O)C1=Cc2ccc(C3(C(=O)Nc4cnc5c(c4)CNCC5)CC3)cc2N=C(N)C1 (single isomer, unassigned) [Compound 25-1] | < 250 nM
CCCN(CCO)C(=O)C1=Cc2c(F)cc(C3(C(=O)Nc4cncc(CN)c4)CC3)cc2N=C(N)C1 [Compound 12, 2-amino-8-(1-((5-(aminomethyl)pyridin-3-yl)carbamoyl)cyclopropyl)-6-fluoro-N-(2-hydroxyethyl)-N-propyl-3H-benzo[b]azepine-4-formamide] | < 250 nM
CCCN(CCC)C(=O)C1=Cc2c(F)cc(C3(C(=O)Nc4cncc(CN)c4)CC3)cc2N=C(N)C1 [Compound 13, 2-amino-8-(1-((5-(aminomethyl)pyridin-3-yl)carbamoyl)cyclopropyl)-6-fluoro-N,N-dipropyl-3H-benzo[b]azepine-4-formamide] | < 250 nM
CCCN(CCC)C(=O)C1=Cc2ccc(C3(C(=O)Nc4ccc5c(c4)CNCC5)CC3)cc2N=C(N)C1 [Compound 15, 2-amino-N,N-dipropyl-8-(1-((1,2,3,4-tetrahydroisoquinolin-7-yl)carbamoyl)cyclopropyl)-3H-benzo[b]azepine-4-formamide] | < 250 nM
CCCN(CCC)C(=O)C1=Cc2ccc(C3(C(=O)Nc4cncc(CN)c4)CC3)cc2N=C(N)C1 [Compound 16] | < 250 nM
CCCN(CCO)C(=O)C1=Cc2ccc(C3(C(=O)NCc4ccc(N)cc4)CC3)cc2N=C(N)C1 [Compound 17, 2-amino-8-(1-((4-aminobenzyl)carbamoyl)cyclopropyl)-N-(2-hydroxyethyl)-N-propyl-3H-benzo[b]azepine-4-formamide] | < 250 nM
CCCN(CCO)C(=O)C1=Cc2ccc(C3(C(=O)NCc4cccc(N)c4)CC3)cc2N=C(N)C1 [Compound 18, 2-amino-8-(1-((3-aminobenzyl)carbamoyl)cyclopropyl)-N-(2-hydroxyethyl)-N-propyl-3H-benzo[b]azepine-4-formamide] | < 250 nM
CCCN(CCO)C(=O)C1=Cc2ccc(C3(C(=O)Nc4cccc(N)c4)CC3)cc2N=C(N)C1 [Compound 19, 2-amino-8-(1-((3-aminophenyl)carbamoyl)cyclopropyl)-N-(2-hydroxyethyl)-N-propyl-3H-benzo[b]azepine-4-formamide] | < 250 nM
CCCN(CCO)C(=O)C1=Cc2ccc(C3(C(=O)Nc4cncc(N)c4)CC3)cc2N=C(N)C1 [Compound 20, 2-amino-8-(1-((5-aminopyridin-3-yl)carbamoyl)cyclopropyl)-N-(2-hydroxyethyl)-N-propyl-3H-benzo[b]azepine-4-formamide] | 250 to 1000 nM
CCCN(CCO)C(=O)C1=Cc2ccc(C3(C(=O)NCc4cncc(N)c4)CC3)cc2N=C(N)C1 [Compound 22, 2-amino-8-(1-(((5-aminopyridin-3-yl)methyl)carbamoyl)cyclopropyl)-N-(2-hydroxyethyl)-N-propyl-3H-benzo[b]azepine-4-formamide] | 250 to 1000 nM
CCCN(OCC)C(=O)C1=Cc2ccc(C3(C(=O)Nc4cnc5c(c4)CNCC5)CC3)cc2N=C(N)C1 [Compound 23, 2-amino-N-ethoxy-N-propyl-8-(1-((5,6,7,8-tetrahydro-1,6-naphthyridin-3-yl)carbamoyl)cyclopropyl)-3H-benzo[b]azepine-4-formamide] | < 250 nM
CCCN(CCO)C(=O)C1=Cc2ccc(C3(C(=O)Nc4cnc5c(c4)CN(C(=O)[C@H](CCCNC(N)=O)NC(=O)[C@@H](N)C(C)C)CC5)CC3)cc2N=C(N)C1 [Example 33, 2-amino-8-(1-((6-((S)-2-((S)-2-amino-3-methylbutanoylamino)-5-ureidopentanoyl)-5,6,7,8-tetrahydro-1,6-naphthyridin-3-yl)carbamoyl)cyclopropyl)-N-(2-hydroxyethyl)-N-propyl-3H-benzo[b]azepine-4-formamide] | < 250 nM
CCCN(CCO)C(=O)C1=Cc2ccc(C3(C(=O)Nc4cnc5c(c4)CN(C(=O)CCOCCOCCOCCOCCOCCOCCNC(=O)CCN4C(=O)C=CC4=O)CC5)CC3)cc2N=C(N)C1 [II-12, 2-amino-8-(1-((6-(1-(2,5-dioxo-2,5-dihydro-1H-pyrrol-1-yl)-3-oxo-7,10,13,16,19,22-hexaoxa-4-azapentacosan-25-acyl)-5,6,7,8-tetrahydro-1,6-naphthyridin-3-yl)carbamoyl)cyclopropyl)-N-(2-hydroxyethyl)-N-propyl-3H-benzo[b]azepine-4-formamide] | 250 to 1000 nM
CCCN(CCO)C(=O)C1=Cc2ccc(C3(C(=O)Nc4cnc5c(c4)CN(C(=O)CCOCCOCCOCCOCCOCCOCCNC(=O)[C@H](CCCNC(N)=O)NC(=O)[C@@H](NC(=O)CCCCCN4C(=O)C=CC4=O)C(C)C)CC5)CC3)cc2N=C(N)C1 [II-18, 2-amino-8-(1-((6-((24S,27S)-34-(2,5-dioxo-2,5-dihydro-1H-pyrrol-1-yl)-27-isopropyl-23,26,29-trioxo-24-(3-ureidopropyl)-4,7,10,13,16,19-hexaoxa-22,25,28-triazatetratriacontanacyl)-5,6,7,8-tetrahydro-1,6-naphthyridin-3-yl)carbamoyl)cyclopropyl)-N-(2-hydroxyethyl)-N-propyl-3H-benzo[b]azepine-4-formamide] | 250 to 1000 nM

Next, values leading:

EC50 | SMILES
250 to 1000 nM | CCCN(CCO)C(=O)C1=Cc2ccc(C3(C(=O)Nc4cnc5c(c4)CN(C(=O)C4COC(CN6C(=O)C=CC6=O)OC4)CC5)CC3)cc2N=C(N)C1 (single isomer, unassigned) [II-77, 2-amino-8-(1-((6-(2-((2,5-dioxo-2,5-dihydro-1H-pyrrol-1-yl)methyl)-1,3-dioxan-5-carbonyl)-5,6,7,8-tetrahydro-1,6-naphthyridin-3-yl)carbamoyl)cyclopropyl)-N-(2-hydroxyethyl)-N-propyl-3H-benzo[b]azepine-4-formamide]
250 to 1000 nM | CCCN(CCO)C(=O)C1=Cc2ccc(C3(C(=O)Nc4cnc5c(c4)CN(C(=O)CCOCCOCCNC(=O)CCN4C(=O)C=CC4=O)CC5)CC3)cc2N=C(N)C1 [II-7, 2-amino-8-(1-((6-(3-(2-(2-(3-(2,5-dioxo-2,5-dihydro-1H-pyrrol-1-yl)propionylamino)ethoxy)ethoxy)propionyl)-5,6,7,8-tetrahydro-1,6-naphthyridin-3-yl)carbamoyl)cyclopropyl)-N-(2-hydroxyethyl)-N-propyl-3H-benzo[b]azepine-4-formamide]
250 to 1000 nM | CCCN(CCO)C(=O)C1=Cc2ccc(C3(C(=O)Nc4cnc5c(c4)CN(C(=O)CCOCCOCCNC(=O)[C@H](CCCNC(N)=O)NC(=O)[C@@H](NC(=O)CCCCCN4C(=O)C=CC4=O)C(C)C)CC5)CC3)cc2N=C(N)C1 [II-17, 2-amino-8-(1-((6-((12S,15S)-22-(2,5-dioxo-2,5-dihydro-1H-pyrrol-1-yl)-15-isopropyl-11,14,17-trioxo-12-(3-ureidopropyl)-4,7-dioxa-10,13,16-triazabehenoyl)-5,6,7,8-tetrahydro-1,6-naphthyridin-3-yl)carbamoyl)cyclopropyl)-N-(2-hydroxyethyl)-N-propyl-3H-benzo[b]azepine-4-formamide]
